Data reported in publication PMC3214660 (Cancer prevention research (Philadelphia, Pa.), 2011).

Experiments:
[1] = Tissue analysis for defluorination in rat footpads; format: in vivo, Sprague-Dawley rats; conditions: compound 7 1 mg/kg i.p., 2 hours post dosing
mCOX-2 = target: T1, mCOX-2 (Mus musculus, UniProt Q05769); test: Enzyme-inhibitor binding kinetics, time-dependent inhibition of purified mCOX-2; format: biochemical; conditions: mCOX-2, time-dependent inhibition
T1 sequence (Q05769 18-604): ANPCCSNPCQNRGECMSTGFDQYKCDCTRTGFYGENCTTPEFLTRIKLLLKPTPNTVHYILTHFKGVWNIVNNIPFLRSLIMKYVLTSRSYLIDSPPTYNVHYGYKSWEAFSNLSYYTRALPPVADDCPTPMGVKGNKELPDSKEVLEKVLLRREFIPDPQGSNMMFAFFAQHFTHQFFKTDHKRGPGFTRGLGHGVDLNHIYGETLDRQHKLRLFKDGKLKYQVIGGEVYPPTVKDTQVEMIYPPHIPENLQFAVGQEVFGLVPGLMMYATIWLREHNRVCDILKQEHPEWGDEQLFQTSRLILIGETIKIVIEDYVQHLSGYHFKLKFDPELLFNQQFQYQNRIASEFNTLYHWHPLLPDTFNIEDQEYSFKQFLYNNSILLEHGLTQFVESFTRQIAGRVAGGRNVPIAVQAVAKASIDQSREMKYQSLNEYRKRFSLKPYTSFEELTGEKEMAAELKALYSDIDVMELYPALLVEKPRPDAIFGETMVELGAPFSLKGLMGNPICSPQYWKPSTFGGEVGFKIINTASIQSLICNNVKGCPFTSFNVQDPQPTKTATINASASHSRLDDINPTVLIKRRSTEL

COX-2 in RAW264.7 cells = format: cell-based, murine

calculated extent of defluorination ([1]; rat footpad, n = 3) [%]	amount in inflamed footpad ([1]; rat, LC-MS) [pmol/g tissue]	dissociation rate k−2 (mCOX-2) [s⁻¹]	inactivation rate k2 (mCOX-2) [s⁻¹]	KI, equilibrium constant for initial association (k−1/k1) (mCOX-2; 37 °C) [nM]	IC50 (COX-2 in RAW264.7 cells; Mus musculus, RAW264.7, 0.5 h, read-out: RAW246.7 Cells IC50 COX-2) [nM]	SMILES	Inhibition of COX-2 in intact RAW264.7 cells, in words (COX-2 in RAW264.7 cells; activated RAW264.7 cells, prostaglandin production)
8.8 ± 5.0	486.3	0.0003	0.035	7300 ± 1600		Cc1ccc(-c2cc(CF)nn2-c2ccc(S(N)(=O)=O)cc2)cc1 [Compound 7]	low nanomolar range
					10	COc1ccc2c(c1)c(CC(=O)O)c(C)n2C(=O)c1ccc(Cl)cc1 [Indomethacin, reference compound]	
